This is an account of results in US12497642B2, “Incorporation of unnatural nucleotides and methods of use in vivo thereof” (THE SCRIPPS RESEARCH INSTITUTE, priority 2017, dated 2025).

Where “and” joins values, the source holds several entries; their conditions need not be identical. Equal entries are not always repeated.

Data set [1] has as its target T1, Klenow fragment of E. coli DNA polymerase I (Escherichia coli, UniProt P00582).
T1 construct: the Klenow fragment of E. coli DNA polymerase I
In words: Steady-state kinetic assay of unnatural triphosphate insertion. Type of data set: biochemical.

For a further data set, the system named is OneTaq DNA polymerase. The experiment in a line: PCR amplification fidelity of DNA containing a single UBP (UBP retention in vitro). Type of data set: biochemical. The settings on record: with dTPT3TP, 20 cycles. An excerpt:
The fidelity with which DNA containing a single UBP is PCR amplified was explored using OneTaq DNA polymerase. To quantify fidelity, templates containing the dNaM-dTPT3 UBP were amplified with dTPT3TP and dNaMTP, dPTMOTP or dMTMOTP. Two templates were used where the UBP was flanked by different sequence contexts; T1, where X (X=NaM, or after the first round of replication, NaM, PTNO, or MTMO) is flanked by a 5′ dA and a 3′ dT, and which with X=dNaM is well replicated in the SSO, and T2 where X is flanked by a 5′ dC and a 3′ dG, and which with X=dNaM is poorly replicated in the SSO. DNA was amplified for 20 cycles with extension times of either 1 min or 45 s, with the shorter times used to probe amplification efficiency. After amplification, the DNA was purified and UBP retention was characterized via a second PCR amplification using OneTaq and DeepVent DNA polymerases and a biotinylated analog of dNaMTP, whose product was analyzed by PAGE.

The test system of the next data set is SSO (strain YZ3). In words: UBP retention in vivo in the SSO (biotin shift assay), Example 2. Type of data set: cell-based, Escherichia coli. An excerpt: Thus, to evaluate the UBPs in the in vivo environment of the SSO, Golden Gate assembly was used to construct four derivatives of the pUC19 plasmid containing a single dNaM-dTPT3 UBP, but where it was flanked by one of four different sequence contexts, context 1-4. These sequence contexts show decreasing UBP retention with dNaM-dTPT3. Plasmids were used to transform the SSO (strain YZ3), which was allowed to recover briefly in media containing dTPT3TP and either dNaMTP, dPTMOTP, or dMTMOTP. After transfer to fresh media containing the same triphosphates and ampicillin (to select for plasmid retention), the SSO was allowed to grow to an OD600 of ˜0.7, at which time plasmids were recovered and analyzed for UBP retention the same biotin shift assay described above. FIG. 9 exemplifies the results in vivo.

The test system of data set [2] is semi-synthetic organism (SSO) (strain YZ3). In words: Replication and UBP retention in vivo in the semi-synthetic organism (streptavidin biotin shift, PAGE), Example 1. Type of data set: cell-based, Escherichia coli. The settings on record: Table 5, dTPT3TP 25 μM. The method, then: All bacteria were cultured in 100 μL of liquid 2×YT media (casein peptone 16 g/L, yeast extract 10 g/L, NaCl 5 g/L) supplemented with potassium phosphate (50 mM, pH 7) in 96-well microwell plates. When noted, antibiotics were used at the following concentrations: chloramphenicol, 5 μg/mL; ampicillin, 100 μg/mL. Cell growth, indicated as OD600, was measured using a Perkin Elmer EnVision 2103 Multilabel Reader with a 590/20 nm filter. Unless otherwise stated, molecular biology reagents were purchased from New England Biolabs (Ipswich, MA) and were used according to the manufacturer's protocols. As necessary, purification of nucleic acids was accomplished by micro-elution columns (Zymo Research Corp; Irvine, CA). All natural oligonucleotides were purchased from IDT (San Diego, CA), and oligonucleotides containing dNaM were synthesized by Biosearch Technologies (Petaluma, CA) with purification by reverse phase cartridge. Unnatural nucleotide triphosphates were prepared, and confirmed by MALDI-TOF and UV/Vis.
Plasmids containing the dNaM-dTPT3 UBP were prepared and used to transform the semi-synthetic organism (SSO). To create a template for in vivo replication assays, Golden Gate assembly was used to construct a derivative of the pUC19 plasmid in which a single dNaM-dTPT3 UBP was embedded within the TK1 sequence ([…]; […]), a context within which the UBP is well replicated in the SSO. Plasmids were then used to transform the SSO (strain YZ3). Following transformation, the SSO was allowed to recover at 37° C. for 1 h in media containing dNaMTP (125 μM) and dTPT3TP (25 μM). Cells were pelleted by centrifugation, resuspended in fresh media lacking unnatural triphosphates, split into 100-μL aliquots and then used to inoculate cultures containing different pairs of unnatural triphosphates at the specified concentrations. When the cell density reached an OD600 of ˜0.7, cells were pelleted and plasmids were recovered and PCR amplified with d5SICSTP and a biotinylated analog of dNaMTP, and UBP retention was determined by comparing the intensity of the streptavidin shifted and unshifted bands via PAGE.

The mark [3] stands for this setting: insertion of dXTP opposite dY = dTPT3 in template.
The mark [4] stands for this setting: template T1 (5′ dA, 3′ dT), extension time 45 s.
Setting [5] is: template T1 (5′ dA, 3′ dT), extension time 1 min.
Where [6] appears, read: template T2 (5′ dC, 3′ dG), extension time 45 s.
Setting [7] is: template T2 (5′ dC, 3′ dG), extension time 1 min.
The mark [8] stands for this setting: context d(ANaMT) / AXT, dTPT3TP 25 μM, triphosphate 5 μM.
Where [9] appears, read: context d(ANaMT) / AXT, dTPT3TP 25 μM, triphosphate 10 μM.
The mark [10] stands for this setting: context d(ANaMT), with dTPT3TP, triphosphate 25 μM.
[11] abbreviates: context d(ANaMT), with dTPT3TP, triphosphate 150 μM.
Setting [12] is: context d(CNaMC), with dTPT3TP, triphosphate 25 μM.
Setting [13] is: context d(CNaMC), with dTPT3TP, triphosphate 150 μM.
Setting [14] is: context d(CNaMG), with dTPT3TP, triphosphate 25 μM.
Where [15] appears, read: context d(CNaMG), with dTPT3TP, triphosphate 150 μM.

T1 sequence (P00582 324-928): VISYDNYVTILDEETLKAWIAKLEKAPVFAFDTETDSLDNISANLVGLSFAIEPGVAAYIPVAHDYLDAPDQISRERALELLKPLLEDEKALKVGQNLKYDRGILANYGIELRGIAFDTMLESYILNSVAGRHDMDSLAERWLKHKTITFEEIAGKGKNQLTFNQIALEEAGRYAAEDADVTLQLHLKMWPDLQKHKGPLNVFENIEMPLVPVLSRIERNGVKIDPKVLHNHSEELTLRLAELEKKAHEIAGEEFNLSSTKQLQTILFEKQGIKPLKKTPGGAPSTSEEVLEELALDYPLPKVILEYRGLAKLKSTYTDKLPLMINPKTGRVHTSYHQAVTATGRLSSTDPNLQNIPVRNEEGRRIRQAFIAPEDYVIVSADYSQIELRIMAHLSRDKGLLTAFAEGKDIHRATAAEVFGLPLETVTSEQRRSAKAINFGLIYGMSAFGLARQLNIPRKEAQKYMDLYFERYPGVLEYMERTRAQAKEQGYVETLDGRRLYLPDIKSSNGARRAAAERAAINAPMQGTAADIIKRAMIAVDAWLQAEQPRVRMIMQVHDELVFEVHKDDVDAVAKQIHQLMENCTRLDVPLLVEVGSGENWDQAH

Consider `COc1cc2ccsc2cc1C1CC(O)C(COP(=O)(O)OP(=O)(O)OP(=O)(O)O)O1` (stereo not shown) [dMTMOTP], for which the Michaelis-Menten constant (Km) in data set [1] (setting [3]) came to 0.22 µM. For the same molecule, the kcat in data set [1] (setting [3]) is 0.142 s⁻¹ and 0.142 ± 0.0283 s⁻¹. Besides, the “UBP retention after PCR amplification” value in the data set on OneTaq DNA polymerase (setting [4]) turned out to be 84%; in the data set with OneTaq DNA polymerase (setting [5]) it was 80%; in the data set with OneTaq DNA polymerase (setting [6]), 58%; in the data set on OneTaq DNA polymerase (setting [7]) it was 58%. Further, the UBP retention in the data set with SSO (strain YZ3) (setting [8]) was 59% and 59±24%; with SSO (strain YZ3) (setting [9]), 80% and 80±11%; with SSO (strain YZ3) (setting [10]), 96%; in the data set with SSO (strain YZ3) (setting [11]), 99%; in the data set on SSO (strain YZ3) (setting [12]) it was 19%; with SSO (strain YZ3) (setting [13]), 62%. For the same molecule, the UBP retention with SSO (strain YZ3) (setting [14]) is recorded as 5%; in the data set with SSO (strain YZ3) (setting [15]), 8%.
For `COc1cc2ccccc2cc1[C@H]1C[C@H](O)[C@@H](COP(=O)(O)OP(=O)(O)OP(=O)(O)O)O1` [dNaMTP, reference compound], the “UBP retention (%)” value is listed as 85% in data set [2] (sequence context 1 (AXT), dNaMTP or dCNMOTP 25 μM); 85 ± 10% in data set [2] (sequence context 1 (AXT), dNaMTP or dCNMOTP 25 μM, listed as dNaM); 99 ± 3% in data set [2] (sequence context 1 (AXT), dNaMTP or dCNMOTP 125 μM); 36% in data set [2] (sequence context 2 (AXA), dNaMTP or dCNMOTP 25 μM); 36 ± 29% in data set [2] (sequence context 2 (AXA), dNaMTP or dCNMOTP 25 μM, listed as dNaM); 73% in data set [2] (sequence context 2 (AXA), dNaMTP or dCNMOTP 125 μM). Besides, the “UBP retention (%)” value in data set [2] (sequence context 2 (AXA), dNaMTP or dCNMOTP 125 μM, listed as dNaM) is 73 ± 21%; in data set [2] (sequence context 3 (CXC), dNaMTP or dCNMOTP 25 μM) it was “no retention”; in data set [2] (sequence context 3 (CXC), dNaMTP or dCNMOTP 25 μM, listed as dNaM) it was 7 ± 2%; in data set [2] (sequence context 3 (CXC), dNaMTP or dCNMOTP 125 μM), 26%; in data set [2] (sequence context 3 (CXC), dNaMTP or dCNMOTP 125 μM, listed as dNaM), 26 ± 16%; in data set [2] (sequence context 4 (CXG), dNaMTP or dCNMOTP 25 μM) it was “not retained significantly”. For the same molecule, the “UBP retention (%)” value in data set [2] (sequence context 4 (CXG), dNaMTP or dCNMOTP 25 μM, listed as dNaM) was 9 ± 1%; in data set [2] (sequence context 4 (CXG), dNaMTP or dCNMOTP 125 μM) it was “not retained significantly”; in data set [2] (sequence context 4 (CXG), dNaMTP or dCNMOTP 125 μM, listed as dNaM), 13 ± 2%. Further, in data set [1] (setting [3]), the Km is 0.09 µM. Besides, the kcat in data set [1] (setting [3]) is 0.178 s⁻¹. Further, the “UBP retention after PCR amplification” value turned out to be 95% in the data set with OneTaq DNA polymerase (setting [4]), 100% with OneTaq DNA polymerase (setting [5]), 85% with OneTaq DNA polymerase (setting [6]) and 86% with OneTaq DNA polymerase (setting [7]). The UBP retention in the data set on SSO (strain YZ3) (setting [8]) is 17% and 17±21%; in the data set with SSO (strain YZ3) (setting [9]), 29% and 29±11%; in the data set with SSO (strain YZ3) (setting [10]), 82%; with SSO (strain YZ3) (setting [11]), 98%; with SSO (strain YZ3) (setting [12]), 7%; in the data set on SSO (strain YZ3) (setting [13]), 44%. The values for the UBP retention in the data set on SSO (strain YZ3) (setting [14]) and in the data set on SSO (strain YZ3) (setting [15]) were 5% and 6%, respectively.
On to `COc1cc2sccc2cc1[C@H]1C[C@H](O)[C@@H](COP(=O)(O)OP(=O)(O)OP(=O)(O)O)O1` [dPTMOTP], for which the Michaelis-Menten constant (Km) in data set [1] (setting [3]) was found to be 0.08 µM. Also, in data set [1] (setting [3]), the catalytic constant (kcat) was 0.323 s⁻¹ and 0.323 ± 0.02 s⁻¹. The “UBP retention after PCR amplification” value with OneTaq DNA polymerase (setting [4]) is 90%; in the data set on OneTaq DNA polymerase (setting [5]), 98%; in the data set on OneTaq DNA polymerase (setting [6]), 74%; with OneTaq DNA polymerase (setting [7]), 78%. Moreover, the toxicity to cells result in the data set on SSO (strain YZ3) (SSO cells, concentration matrix 5-150 μM, context CXC) is “not toxic to cells”. In addition, the “effective concentration can be dropped to” value in the data set on SSO (strain YZ3) (context CXC (difficult to replicate sequences)) came to 100 µM. Also, the “UBP retention (Avg)” value was determined as 7% in the data set with SSO (strain YZ3) (context CXC, dPTMOTP 5 μM, dTPT3TP 5 μM); 7% in the data set with SSO (strain YZ3) (context CXC, dPTMOTP 5 μM, dTPT3TP 25 μM); 10% in the data set with SSO (strain YZ3) (context CXC, dPTMOTP 5 μM, dTPT3TP 100 μM); 7% in the data set with SSO (strain YZ3) (context CXC, dPTMOTP 5 μM, dTPT3TP 150 μM); 18% with SSO (strain YZ3) (context CXC, dPTMOTP 25 μM, dTPT3TP 5 μM); 59% with SSO (strain YZ3) (context CXC, dPTMOTP 25 μM, dTPT3TP 25 μM). Also, the “UBP retention (Avg)” value is given as 63% in the data set on SSO (strain YZ3) (context CXC, dPTMOTP 25 μM, dTPT3TP 100 μM); 47% with SSO (strain YZ3) (context CXC, dPTMOTP 25 μM, dTPT3TP 150 μM); 58% with SSO (strain YZ3) (context CXC, dPTMOTP 100 μM, dTPT3TP 5 μM); 89% in the data set on SSO (strain YZ3) (context CXC, dPTMOTP 100 μM, dTPT3TP 25 μM); 93% with SSO (strain YZ3) (context CXC, dPTMOTP 100 μM, dTPT3TP 100 μM); 66% with SSO (strain YZ3) (context CXC, dPTMOTP 100 μM, dTPT3TP 150 μM). In addition, the “UBP retention (Avg)” value turned out to be 61% in the data set on SSO (strain YZ3) (context CXC, dPTMOTP 150 μM, dTPT3TP 5 μM); 103% with SSO (strain YZ3) (context CXC, dPTMOTP 150 μM, dTPT3TP 25 μM); 90% with SSO (strain YZ3) (context CXC, dPTMOTP 150 μM, dTPT3TP 100 μM); 64% with SSO (strain YZ3) (context CXC, dPTMOTP 150 μM, dTPT3TP 150 μM). Also, the UBP retention with SSO (strain YZ3) (setting [8]) is 77% and 77±22%; in the data set on SSO (strain YZ3) (setting [9]), 92% and 92±6%; in the data set on SSO (strain YZ3) (setting [10]), 99%; with SSO (strain YZ3) (setting [11]), 98%; in the data set with SSO (strain YZ3) (setting [12]), 55%; in the data set on SSO (strain YZ3) (setting [13]), 97%. The UBP retention with SSO (strain YZ3) (setting [14]) came to 2%; in the data set with SSO (strain YZ3) (setting [15]) it was 7%.
For `Cc1cn([C@H]2C[C@H](O)[C@@H](COP(=O)(O)OP(=O)(O)OP(=O)(O)O)O2)c(=O)[nH]c1=O` [dTTP, reference compound], in data set [1] (insertion opposite dY = dA in template), the kcat was 0.085 s⁻¹ and 0.0853 ± 0.0127 s⁻¹.
